One assay deals with T1, human μ-opiate receptor (Homo sapiens, UniProt P35372).
T1 construct: purchased NEN, Zaventem, Belgium RB-HOM; host or cells: CHO-K1 cells (membrane preparation)
In words: μ-opiate receptor binding assay with [3H] naloxone (WGA-SPA beads). The note with it: 1 μmol/l test substance; 1 nmol/l [3H] naloxone; CHO-K1 cell membranes expressing human μ-opiate receptor. Put shortly:
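Scintillation proximity readout: [3H]naloxone (1 nmol/l) displacement measured after 90 min, room temperature, on human μ-receptor CHO-K1 membranes in Tris-HCl/azide/BSA buffer; 25 μmol/l naloxone defined non-specific binding. Values are % specific-binding inhibition at 1 μmol/l, or Ki from IC50 (Cheng-Prusoff).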

Another assay has as its target T2, ORL1 receptor (Homo sapiens, UniProt P41146).
T2 construct: expressed in transfected cells; host or cells: CHO (recombinant CHO-ORL1 cells), membranes
In words: ORL1 receptor binding assay with 3H-nociceptin/orphanin FQ (WGA-SPA beads). The note with it: c=1 μM test substance; 0.5 nM 3H-nociceptin/orphanin FQ; membranes of recombinant CHO-ORL1 cells. Put shortly: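 Affinity given as nanomolar Ki or as % inhibition at c=1 μM. Membranes of CHO cells expressing recombinant ORL1 (20 μg protein) were incubated one hour at room temperature with 0.5 nM 3H-nociceptin/orphanin FQ in Hepes 50 mM, pH 7.4, plus MgCl2 and EDTA; bound ligand detected by SPA bead scintillation counting.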

SMILES strings stand for the structures.

T1 sequence (P35372 whole entry): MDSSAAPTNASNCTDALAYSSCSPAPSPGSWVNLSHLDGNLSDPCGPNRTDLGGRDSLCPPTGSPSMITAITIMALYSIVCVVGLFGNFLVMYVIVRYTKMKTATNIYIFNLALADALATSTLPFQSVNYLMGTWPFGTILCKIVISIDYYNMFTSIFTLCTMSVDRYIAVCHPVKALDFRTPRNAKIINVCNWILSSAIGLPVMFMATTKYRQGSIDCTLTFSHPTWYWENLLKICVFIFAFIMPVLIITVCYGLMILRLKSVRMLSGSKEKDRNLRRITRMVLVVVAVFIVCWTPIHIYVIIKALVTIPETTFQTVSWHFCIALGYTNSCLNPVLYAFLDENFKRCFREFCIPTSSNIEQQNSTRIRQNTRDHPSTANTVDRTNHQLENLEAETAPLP
T2 sequence (P41146 whole entry): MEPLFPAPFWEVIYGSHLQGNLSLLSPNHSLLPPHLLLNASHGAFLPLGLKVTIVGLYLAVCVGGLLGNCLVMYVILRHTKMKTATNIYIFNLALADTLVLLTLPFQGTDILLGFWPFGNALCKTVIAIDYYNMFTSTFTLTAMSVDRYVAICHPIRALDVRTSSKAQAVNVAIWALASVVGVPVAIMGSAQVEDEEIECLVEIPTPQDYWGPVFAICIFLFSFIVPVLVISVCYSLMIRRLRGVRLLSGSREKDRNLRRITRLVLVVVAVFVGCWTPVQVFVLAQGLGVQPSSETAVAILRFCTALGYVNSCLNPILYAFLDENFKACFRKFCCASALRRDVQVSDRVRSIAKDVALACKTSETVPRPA

Turning to `CC(C)C(C(=O)N1CCC(c2ccccc2)(N(C)C)CC1)N(C)Cc1ccc2[nH]ccc2c1` (stereo not drawn) [Example 146, 2-(((1H-indol-5-yl)methyl)(methyl)amino)-1-(4-(dimethylamino)-4-phenylpiperidin-1-yl)-3-methylbutan-1-one], the inhibition at 1 µM at human μ-opiate receptor turned out to be 53%; on ORL1 receptor, 24%.
The corresponding values for `CN(Cc1ccc2[nH]ccc2c1)C(C(=O)N1CCC(c2cccs2)(N(C)C)CC1)c1ccccc1` (stereo not drawn) [Example 147, 2-(((1H-indol-5-yl)methyl)(methyl)amino)-1-(4-(dimethylamino)-4-(thiophen-2-yl)piperidin-1-yl)-2-phenylethanone] are 47% and 27%.
On to `CN(C)C1(c2ccccc2)CCN(C(=O)C2CCCN(Cc3ccc4[nH]ccc4c3)C2)CC1` (stereo not drawn) [Example 148, (1-((1H-indol-5-yl)methyl)piperidin-3-yl)(4-(dimethylamino)-4-phenylpiperidin-1-yl)methanone], for which the inhibition at 1 µM at human μ-opiate receptor came to 41%; at ORL1 receptor it was 17%.
The corresponding values for `CC(C)C(C(=O)N1CCC(c2ccccc2)(N(C)C)CC1)N(C)Cc1ccc2cc[nH]c2c1` (stereo not drawn) [Example 149, 2-(((1H-indol-6-yl)methyl)(methyl)amino)-1-(4-(dimethylamino)-4-phenylpiperidin-1-yl)-3-methylbutan-1-one] are 54% and 52%.
`CN(Cc1ccc2cc[nH]c2c1)C(C(=O)N1CCC(c2cccs2)(N(C)C)CC1)c1ccccc1` (stereo not drawn) [Example 150, 2-(((1H-indol-6-yl)methyl)(methyl)amino)-1-(4-(dimethylamino)-4-(thiophen-2-yl)pipendin-1-yl)-2-phenylethanone]: the “% Inhibition (μ) at 1 μM” value at human μ-opiate receptor is reported as 54%. Besides, the “% Inhibition (ORL1) at 1 μM” value on ORL1 receptor came out at 76%.
Take `CN(C)C1(c2ccccc2)CCN(C(=O)C2CCCN(Cc3c[nH]c4ccccc34)C2)CC1` (stereo not drawn) [Example 151, (1-((1H-indol-3-yl)methyl)piperidin-3-yl)(4-(dimethylamino)-4-phenylpiperidin-1-yl)methanone]: the results for the inhibition at 1 µM on human μ-opiate receptor and at ORL1 receptor were 83% and 52%, respectively.
In the case of `CN(C)C1(c2ccccc2)CCN(C(=O)C2CCCN(Cc3ccc4cc[nH]c4c3)C2)CC1` (stereo not drawn) [Example 152, (1-((1H-indol-6-yl)methyl)piperidin-3-yl)(4-(dimethylamino)-4-phenylpiperidin-1-yl)methanone], the inhibition at 1 µM was 93% at human μ-opiate receptor and 80% at ORL1 receptor.
On to `CCCCC1(N(C)C)CCN(CCN(C)Cc2c[nH]c3ccc(Br)cc23)CC1` [Example 154, 1-(2-(((5-bromo-1H-indol-3-yl)methyl)(methyl)amino)ethyl)-4-butyl-N,N-dimethylpiperidin-4-amine], for which the inhibition at 1 µM on human μ-opiate receptor amounted to 94%; on ORL1 receptor it was 28%.
The corresponding values for `CN(C)C1(c2ccccc2)CCN(C(=O)C2CCCN(Cc3c[nH]c4ccc(Br)cc34)C2)CC1` (stereo not drawn) [Example 155, (1-((5-bromo-1H-indol-3-yl)methyl)piperidin-3-yl)(4-(dimethylamino)-4-phenylpiperidin-1-yl) methanone] are 89% and 69%.
The corresponding values for `Cc1[nH]c2ccccc2c1CN1CCCC(C(=O)N2CCC(c3ccccc3)(N(C)C)CC2)C1` (stereo not drawn) [Example 156, (4-(dimethylamino)-4-phenylpiperidin-1-yl)(1-((2-methyl-1H-indol-3-yl)methyl)piperidin-3-yl) methanone] are 57% and 39%.
For `CCCCC1(N(C)C)CCN(CCN(C)Cc2cccc3cc[nH]c23)CC1` [Example 157, 1-(2-(((1H-indol-7-yl)methyl)(methy)amino)ethyl)-4-butyl-N,N-dimethylpiperidin-4-amine], at human μ-opiate receptor, the “% Inhibition (μ) at 1 μM” value turned out to be 96%. In addition, the “% Inhibition (ORL1) at 1 μM” value on ORL1 receptor was determined as 30%.
Turning to `CN(C)C1(c2ccccc2)CCN(C(=O)C2CCCN(Cc3cccc4cc[nH]c34)C2)CC1` (stereo not drawn) [Example 158, (1-((1H-indol-7-yl)methyl)piperidin-3-yl)(4-(dimethylamino)-4-phenylpiperidin-1-yl)methanone], the inhibition at 1 µM is 93% on human μ-opiate receptor and 61% at ORL1 receptor.
The corresponding values for `CN(C)C1(c2ccccc2)CCN(C(=O)C2CCCN(Cc3cccc4[nH]ccc34)C2)CC1` (stereo not drawn) [Example 161, (1-((1H-indol-4-yl)methyl)piperidin-3-yl)(4-(dimethylamino)-4-phenylpiperidin-1-yl)methanone] are 66% and 15%.
Regarding `CN(C)C1(c2ccccc2)CCN(C(=O)CCNCc2c[nH]c3ccc(Br)cc23)CC1` [Example 162, 3-((5-bromo-1H-indol-3-yl)methylamino)-1-(4-(dimethylamino)-4-phenylpiperidin-1-yl)propan-1-one], the inhibition at 1 µM on human μ-opiate receptor turned out to be 80%; at ORL1 receptor it was 63%.
The corresponding values for `CN(C)C1(c2cccs2)CCN(C(=O)CC(NCc2c[nH]c3ccc(Br)cc23)c2ccccc2)CC1` (stereo not drawn) [Example 163, 3-((5-bromo-1H-indol-3-yl)methylamino)-1-(4-(dimethylamino)-4-(thiophen-2-yl)piperidin-1-yl)-3-phenylpropan-1-one] are 87% and 55%.
Turning to `CN(C)C1(c2cccs2)CCN(C(=O)CC(NCc2c[nH]c3ccccc23)c2ccccc2)CC1` (stereo not drawn) [Example 164, 3-((1H-indol-3-yl)methylamino)-1-(4-(dimethylamino)-4-(thiophen-2-yl)piperidin-1-yl)-3-phenylpropan-1-one], the results for the inhibition at 1 µM at human μ-opiate receptor and on ORL1 receptor were 96% and 82%, respectively.
The corresponding values for `CN(C)C1(c2cccs2)CCN(C(=O)CC(NCc2ccc3[nH]ccc3c2)c2ccccc2)CC1` (stereo not drawn) [Example 165, 3-((1H-indol-5-yl)methylamino)-1-(4-(dimethylamino)-4-(thiophen-2-yl)piperidin-1-yl)-3-phenylpropan-1-one] are 92% and 47%.
The corresponding values for `CN(C)C1(c2ccccc2)CCN(C(=O)C2CN(Cc3ccc4[nH]ccc4c3)c3ccccc32)CC1` (stereo not drawn) [Example 166, (1-((1H-indol-5-yl)methyl)indolin-3-yl)(4-(dimethylamino)-4-phenylpiperidin-1-yl)methanone] are 77% and 40%.
The corresponding values for `Cc1[nH]c2ccccc2c1CNCCC(=O)N1CCC(c2ccccc2)(N(C)C)CC1` [Example 167, 1-(4-(dimethylamino)-4-phenylpiperidin-1-yl)-3-((2-methyl-1H-indol-3-yl)methylamino)propan-1-one] are 86% and 65%.
Turning to `Cc1[nH]c2ccccc2c1CNC(CC(=O)N1CCC(c2cccs2)(N(C)C)CC1)c1ccccc1` (stereo not drawn) [Example 168, 1-(4-(dimethylamino)-4-(thiophen-2-yl)piperidin-1-yl)-3-((2-methyl-1H-indol-3-yl)methylamino)-3-phenylpropan-1-one], the inhibition at 1 µM came to 92% at human μ-opiate receptor and 73% on ORL1 receptor.
Take `CN(C)C1(c2cccs2)CCN(C(=O)CC(NCc2ccc3cc[nH]c3c2)c2ccccc2)CC1` (stereo not drawn) [Example 169, 3-((1H-indol-6-yl)methylamino)-1-(4-(dimethylamino)-4-(thiophen-2-yl)piperidin-1-yl)-3-phenylpropan-1-one]: the inhibition at 1 µM on human μ-opiate receptor turned out to be 91%; at ORL1 receptor it was 54%.
The corresponding values for `CN(C)C1(c2ccccc2)CCN(C(=O)C2CN(Cc3ccc4cc[nH]c4c3)c3ccccc32)CC1` (stereo not drawn) [Example 170, (1-((1H-indol-6-yl)methyl)indolin-3-yl)(4-(dimethylamino)-4-phenylpiperidin-1-yl)methanone] are 80% and 38%.
Regarding `CN(C)C1(c2ccccc2)CCN(C(=O)CCNCc2cccc3cc[nH]c23)CC1` [Example 171, 3-((1H-indol-7-yl)methylamino)-1-(4-(dimethylamino)-4-phenylpiperidin-1-yl)propan-1-one], the inhibition at 1 µM on human μ-opiate receptor was 97%; at ORL1 receptor it was 73%.
Regarding `CN(C)C1(c2cccs2)CCN(C(=O)CNCc2cccc3cc[nH]c23)CC1` [Example 172, 2-((1H-indol-7-yl)methylamino)-1-(4-(dimethylamino)-4-(thiophen-2-yl)piperidin-1-yl)ethanone], the inhibition at 1 µM on human μ-opiate receptor came to 96%; at ORL1 receptor it was 67%.
The corresponding values for `CN(C)C1(c2cccs2)CCN(C(=O)CC(NCc2cccc3cc[nH]c23)c2ccccc2)CC1` (stereo not drawn) [Example 173, 3-((1H-indol-7-yl)methylamino)-1-(4-(dimethylamino)-4-(thiophen-2-yl)piperidin-1-yl)-3-phenylpropan-1-one] are 96% and 74%.
The corresponding values for `CN(C)C1(c2cccs2)CCN(C(=O)CC(NCc2cccc3[nH]ccc23)c2ccccc2)CC1` (stereo not drawn) [Example 174, 3-((1H-indol-4-yl)methylamino)-1-(4-(dimethylamino)-4-(thiophen-2-yl)piperidin-1-yl)-3-phenylpropan-1-one] are 92% and 68%.
For the molecule `CN(C)C1(c2ccccc2)CCN(C(=O)C2CN(Cc3cccc4[nH]ccc34)c3ccccc32)CC1` (stereo not drawn) [Example 175], the “% Inhibition (μ) at 1 μM” value at human μ-opiate receptor is recorded as 70%. Besides, the “% Inhibition (ORL1) at 1 μM” value on ORL1 receptor is listed as 10%.

(Values after patent US9206156B2, “Substituted indole derivatives” (GRÜNENTHAL GMBH, priority 2008, dated 2015).)
